Read-outs that look alike come from different tables or passages of the source.
Columns and labels:
Format in all cases: biochemical
[1] = target: T1, bovine pancreatic trypsin (Bos taurus, UniProt P00760); test: Trypsin chromogenic assay, IC50; conditions: 30 min incubation
T1 construct: bovine pancreatic trypsin was obtained from Worthington Biochemical Corp; purchased Worthington Biochemical Corp. TRL3; host or cells: bovine pancreas
T1 sequence (P00760 24-246): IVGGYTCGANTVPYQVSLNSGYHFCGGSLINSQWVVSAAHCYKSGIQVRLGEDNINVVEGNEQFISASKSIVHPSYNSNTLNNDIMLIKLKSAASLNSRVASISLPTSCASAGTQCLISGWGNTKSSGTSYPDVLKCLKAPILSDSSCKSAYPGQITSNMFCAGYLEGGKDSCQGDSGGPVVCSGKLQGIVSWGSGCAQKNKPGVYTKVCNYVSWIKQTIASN
Protocol: (§1) The ability of compounds of the present invention to act as a selective inhibitor of thrombin activity was assessed by determining the concentration of test-compound which inhibited the activity of this enzyme by 50%, (IC50), and comparing this value to that determined for all or some of the following related serine proteases: recombinant tissue plasminogen activator (rt-PA), plasmin, activated protein C, chymotrypsin, factor Xa and trypsin.
(§2) The buffer used for all assays was HBSA (10 mM HEPES, pH 7.5, 150 mM sodium chloride, 0.1% bovine serum albumin).
(§3) The assay for IC50 determinations was conducted by combining in appropriate wells of a Corning microtiter plate, 50 microliters of HBSA, 50 microliters of the test compound at a specified concentration (covering a broad concentration range) diluted in HBSA (or HBSA alone for V0 (uninhibited velocity) measurement), and 50 microliters of the enzyme diluted in HBSA. Following a 30 minute incubation at ambient temperature, 50 microliters of the substrate at the concentrations specified below were added to the wells, yielding a final total volume of 200 microliters. The initial velocity of chromogenic substrate hydrolysis was measured by the change in absorbance at 405 nm using a Thermo Max® Kinetic Microplate Reader over a 5 minute period in which less than 5% of the added substrate was utilized. The concentration of added inhibitor which caused a 50% decrease in the initial rate of hydrolysis was defined as the IC50 value.
Trypsin catalytic activity was determined using the chromogenic substrate, S-2222 (benzoyl-L-isoleucine-L-glutamic acid-[gamma-methyl ester]-L-arginine-p-nitroanilide), which was obtained from DiaPharma Group. […] Purified (3×-crystallized; TRL3) bovine pancreatic trypsin was obtained from Worthington Biochemical Corp. The enzyme was reconstituted in deionized water and diluted into HBSA prior to assay in which the final concentration was 0.5 nM.

human plasmin = human plasmin (Homo sapiens, UniProt P00747); test: Plasmin chromogenic assay, IC50; conditions: 30 min incubation
Protocol: as §1, §2, §3
Plasmin catalytic activity was determined using the chromogenic substrate, S-2366 [L-pyroglutamyl-L-prolyl-L-arginine-p-nitroaniline hydrochloride], which was obtained from DiaPharma group. The substrate was made up in deionized water followed by dilution in HBSA prior to the assay in which the final concentration was 300 micromolar (about 2.5-times Km). Purified human plasmin was obtained from Enzyme Research Laboratories, Inc. The enzyme was diluted into HBSA prior to assay in which the final concentration was 1.0 nM.

Factor Xa = target: T2, Factor Xa (Homo sapiens, UniProt P00742); test: Factor Xa chromogenic assay, IC50; conditions: 30 min incubation; read-out: fxa IC50 (30 min)
T2 construct: purchased Enzyme Research Laboratories, Inc. (South Bend, Ind.)
Protocol: as §1, §2, §3
Factor Xa catalytic activity was determined using the chromogenic substrate S-2765 (N-benzyloxycarbonyl-D-arginine-L-glycine-L-arginine-p-n itroaniline ), obtained from DiaPharma Group (Franklin, Ohio). All substrates were reconstituted in deionized water prior to use. […] Purified human Factor X was obtained from Enzyme Research Laboratories, Inc. (South Bend, Ind.) and Factor Xa (FXa) was activated and prepared from it as described [Bock, P. E., Craig, P. A., Olson, S. T., and Singh, P. Arch, Biochem. Biophys, 273:375-388 (1989)]. The enzyme was diluted into HBSA prior to assay in which the final concentration was 0.25 nM.

human α-thrombin = human α-thrombin (Homo sapiens, UniProt P00734); test: Thrombin (fIIa) chromogenic assay, IC50
[2] = 0 min incubation of enzyme with inhibitor, read-out: fIIa IC50 (0 min)
[3] = 30 min incubation of enzyme with inhibitor, read-out: fIIa IC50 (30 min)

T2 sequence (P00742 235-488 limits assumed): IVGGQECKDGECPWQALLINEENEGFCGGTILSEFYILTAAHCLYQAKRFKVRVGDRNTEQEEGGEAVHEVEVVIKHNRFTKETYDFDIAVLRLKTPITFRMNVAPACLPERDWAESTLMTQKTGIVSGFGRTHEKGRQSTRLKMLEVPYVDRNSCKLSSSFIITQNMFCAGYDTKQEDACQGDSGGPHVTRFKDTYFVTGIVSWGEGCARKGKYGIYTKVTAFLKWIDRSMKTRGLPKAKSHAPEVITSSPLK
T2 sequence (P00742 41-179 partner limits assumed): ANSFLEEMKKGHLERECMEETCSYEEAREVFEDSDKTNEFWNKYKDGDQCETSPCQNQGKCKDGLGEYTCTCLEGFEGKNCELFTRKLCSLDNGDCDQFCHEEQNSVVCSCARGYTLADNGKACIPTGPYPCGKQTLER
Chain of human plasmin (P00747 581-810 limits assumed): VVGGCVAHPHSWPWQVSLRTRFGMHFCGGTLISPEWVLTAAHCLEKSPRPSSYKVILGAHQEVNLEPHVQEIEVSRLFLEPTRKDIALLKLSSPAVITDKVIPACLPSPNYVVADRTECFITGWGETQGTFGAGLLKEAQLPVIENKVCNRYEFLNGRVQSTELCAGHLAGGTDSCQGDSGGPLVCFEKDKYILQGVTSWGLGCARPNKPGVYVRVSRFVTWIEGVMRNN
Chain of human plasmin (P00747 97-580 partner limits assumed): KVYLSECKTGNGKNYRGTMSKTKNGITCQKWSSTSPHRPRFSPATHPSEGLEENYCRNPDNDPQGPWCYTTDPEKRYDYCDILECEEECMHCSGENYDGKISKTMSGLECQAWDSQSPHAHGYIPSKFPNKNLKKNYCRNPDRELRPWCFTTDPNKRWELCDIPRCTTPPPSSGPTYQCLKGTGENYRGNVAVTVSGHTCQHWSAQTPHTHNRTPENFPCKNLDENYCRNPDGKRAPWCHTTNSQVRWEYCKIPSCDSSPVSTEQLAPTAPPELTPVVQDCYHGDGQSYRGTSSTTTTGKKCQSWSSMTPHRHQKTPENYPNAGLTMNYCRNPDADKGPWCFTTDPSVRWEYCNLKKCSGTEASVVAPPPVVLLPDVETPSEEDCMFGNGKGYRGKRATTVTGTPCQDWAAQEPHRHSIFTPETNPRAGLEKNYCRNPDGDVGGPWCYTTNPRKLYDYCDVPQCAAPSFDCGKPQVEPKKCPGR

SMILES	IC50 [1] [µM]	IC50 (human plasmin) [µM]	IC50 (Factor Xa) [µM]	IC50 (human α-thrombin; [2]) [µM]	IC50 (human α-thrombin; [3]) [µM]
Cc1nc(N)ccc1CNC(=O)Cn1c(C)cnc(NNC(=O)NCc2ccc(Cl)cc2)c1=O [Example 37, 1-[5-(2-Amino-6-methylpyridyl)methylcarboxamidomethyl]-3-[2-(4-chlorobenzylcarbamyl)hydrazino]-6-methylpyrazinone, Hydrotrifluoroacetate]	≥ 100	≥ 100	≥ 100	≤ 0.1	≤ 0.1
Cc1nc(N)ccc1CNC(=O)Cn1c(C)cnc(NNS(=O)(=O)c2ccccc2C(F)(F)F)c1=O [Example 45, 1-[5-(2-Amino-6-methylpyridyl)methylcarboxamidomethyl]-6-methyl-3-[2-(2-trifluoromethylbenzenesulfonyl)hydrazino]pyrazinone, Hydrotrifluoroacetate]	≥ 100	≥ 100	2.5 to 100	≤ 0.1	≤ 0.1
COc1ccccc1CNC(=O)NNc1ncc(C)n(CC(=O)NCc2ccc(N)nc2C)c1=O [Example 48, 1-[5-(2-Amino-6-methylpyridyl)methylcarboxamidomethyl]-3-[2-(2-methoxybenzylcarbamyl)hydrazino]-6-methylpyrazinone, Hydrotrifluoroacetate]	≥ 100	≥ 100	≥ 100	≤ 0.1	≤ 0.1
Cc1nc(N)ccc1CNC(=O)Cn1c(C)cnc(NNC(=O)NCc2ccc3c(c2)OCO3)c1=O [Example 49, 1-[5-(2-Amino-6-methylpyridyl)methylcarboxamidomethyl]-6-methyl-3-(2-piperonylcarbamylhydrazino)pyrazinone, Hydrotrifluoroacetate]	≥ 100	≥ 100	≥ 100	≤ 0.1	≤ 0.1
Cc1nc(N)ccc1CNC(=O)Cn1c(C)cnc(NNC(=O)NCCC(C)(C)C)c1=O [Example 50, 1-[5-(2-Amino-6-methylpyridyl)methylcarboxamidomethyl]-6-methyl-3-[2-(3,3-dimethylbutylcarbamyl)hydrazino]pyrazinone, Hydrotrifluoroacetate]	2.5 to 100	≥ 100	2.5 to 100	≤ 0.1	≤ 0.1
Cc1nc(N)ccc1CNC(=O)Cn1c(C)cnc(NNS(=O)(=O)c2ccccc2F)c1=O [Example 54, 1-[5-(2-Amino-6-methylpyridyl)methylcarboxamidomethyl]-3-[2-(2-fluorobenzenesulfonyl)hydrazino]-6-methyl pyrazinone, Hydrotrifluoroacetate]	≥ 100	≥ 100	≥ 100	≤ 0.1	≤ 0.1
COc1ccc(S(=O)(=O)NNc2ncc(C)n(CC(=O)NCc3ccc(N)nc3C)c2=O)cc1 [Example 57]	≥ 100	≥ 100	2.5 to 100	≤ 0.1	≤ 0.1
C#CCOC(=O)N(CC)Nc1ncc(C)n(CC(=O)NCc2ccc(N)nc2C)c1=O [Example 58, 1-[5-(2-Amino-6-methylpyridyl)methylcarboxamidomeyhyl-]3-[2-ethyl-2-(propargyloxycarbonyl)hydrazino]-6-methylpyrazinone, Hydrotrifluoroacetate]	≥ 100	≥ 100	≥ 100	≤ 0.1	≤ 0.1
C#CCOC(=O)N(C)Nc1ncc(C)n(CC(=O)NCc2ccc(N)nc2C)c1=O [Example 59, 1-[5-(2-Amino-6-methylpyridyl)methylcarboxamidomethyl]-6-methyl-3-[2-methyl-2-(propargyloxycarbonyl)hydrazino]pyrazinone, Hydrotrifluoroacetate]	2.5 to 100	≥ 100	≥ 100	≤ 0.1	≤ 0.1
Cc1nc(N)ccc1CNC(=O)Cn1c(C)cnc(NN(CCc2ccccc2)CCc2ccccc2)c1=O [Example 60, 1-[5-(2-Amino-6-methylpyridyl)methylcarboxamidomethyl]-6-methyl-3-[2,2-di(2-phenylethyl)hydrazino]pyrazinone, Hydrotrifluoroacetate]	≥ 100	≥ 100	2.5 to 100	≤ 0.1	≤ 0.1

Source: patent US6506760B1, “Substituted hydrazinyl heteroaromatic inhibitors of thrombin” (Corvas International, Inc., priority 2000, dated 2003)
